The record followed here is the supplement of paper PMC11208160.
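Further: IS621 bridge recombinase in Escherichia coli cells against a fixed T5 target plasmid.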

The data set is described as follows: recombinant UMI read abundance after kanamycin selection (control-corrected) (log10(CPM+1)); higher = more efficient recombination; extreme values may be limits of the assay; sequences stand for … in AGTGCAGAGAAAATCGGCCAGTTTTCTCTGCCTGCAGTCCGCATGCCGTGGGACCCCTTGGGTTCTAACCTGTTGCCTAGATTTATGCAGCGGACTGCCTTTCTCCCAAAGTGATAAACCGG…AGGTTGGTTTCACT; site = the 11-nt donor. A digest of the protocol:
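Two replicates each of selected and unselected plating were used in this pooled Escherichia coli screen of donor and donor-binding-loop pairs for the IS621 bridge recombinase. Selection was with IPTG (0.07 mM) and kanamycin. Counts of recombinant UMIs, amplified across the donor–target junction, were converted to CPM, averaged, scaled by control-derived factors and reported as log10(CPM+1).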
In the case of “CGGACATCATGGACCGGTTTTCCCGGTAATCCGTATTTGTT (site CGGACATCTAA)”, the “recombinant UMI read abundance (log10)” value was found to be 2.07.

On to “CGGACATCATGGACCGGTTTTCCCGGTAATCCGTATTTGTT (site CGGACATCTAC)”, for which the “recombinant UMI read abundance (log10)” value is 0.00517.

Consider “CGGACATCATGGACCGGTTTTCCCGGTAATCCGTATTTGTT (site CGGACATCTAG)”, for which the “recombinant UMI read abundance (log10)” value is 0.

Turning to “CGGACATCATGGACCGGTTTTCCCGGTAATCCGTATTTGTT (site CGGACATCTAT)”, the “recombinant UMI read abundance (log10)” value amounted to 0.

With “CGGACTCCATGGACCGGTTTTCCCGGTAATCCGTATTTGTG (site CGGAATCCTAA)”, the “recombinant UMI read abundance (log10)” value was 0.00428.

As for “CGGACTCCATGGACCGGTTTTCCCGGTAATCCGTATTTGTG (site CGGACTCCTCA)”, the “recombinant UMI read abundance (log10)” value was 0.0192.

In the case of “CGGAGATCATGGACCGGTTTTCCCGGTAATCCGTATTTGCT (site CGGAAATCTAG)”, the “recombinant UMI read abundance (log10)” value was 1.27.

For “CGGAGATCATGGACCGGTTTTCCCGGTAATCCGTATTTGCT (site CGGACATCTAG)”, the “recombinant UMI read abundance (log10)” value was 0.

Regarding “CGGAGATCATGGACCGGTTTTCCCGGTAATCCGTATTTGCT (site CGGAGATCTAG)”, the “recombinant UMI read abundance (log10)” value turned out to be 3.03.

Turning to “CGGAGATCATGGACCGGTTTTCCCGGTAATCCGTATTTGCT (site CGGATATCTAG)”, the “recombinant UMI read abundance (log10)” value is 0.

For the sequence “CGGAGGACATGGACCGGTTTTCCCGGTAATCCGTATTTGCC (site CGGAGGACTGG)”, the “recombinant UMI read abundance (log10)” value stood at 2.76.

On to “CGGAGTCCATGGACCGGTTTTCCCGGTAATCCGTATTTGTC (site CGGAATCCTAA)”, for which the “recombinant UMI read abundance (log10)” value is 0.

As to “CGGAGTCCATGGACCGGTTTTCCCGGTAATCCGTATTTGTC (site CGGAGTCCTGA)”, the “recombinant UMI read abundance (log10)” value was found to be 1.34.

With “CGGATGACATGGACCGGTTTTCCCGGTAATCCGTATTTGAT (site CGGATGACTAT)”, the “recombinant UMI read abundance (log10)” value was determined as 2.14.

Consider “CGGATTCCATGGACCGGTTTTCCCGGTAATCCGTATTTGTA (site CGGAATCCTAA)”, for which the “recombinant UMI read abundance (log10)” value turned out to be 0.0133.

“CGGATTCCATGGACCGGTTTTCCCGGTAATCCGTATTTGTA (site CGGATTCCTTA)”: the “recombinant UMI read abundance (log10)” value stood at 0.

For “CGGATTTCATGGACCGGTTTTCCCGGTAATCCGTATTTGTT (site CGGAATCCTAA)”, the “recombinant UMI read abundance (log10)” value came to 0.

Take “CGGATTTCATGGACCGGTTTTCCCGGTAATCCGTATTTGTT (site CGGATTTCTAA)”: the “recombinant UMI read abundance (log10)” value was 0.891.

On to “CGGCAACCATGGACCGGTTTTCCCGGTAATCCGTATTTGAT (site CGGAAACCTAT)”, for which the “recombinant UMI read abundance (log10)” value was 0.

Consider “CGGCAACCATGGACCGGTTTTCCCGGTAATCCGTATTTGAT (site CGGCAACCTAT)”, for which the “recombinant UMI read abundance (log10)” value amounted to 0.

Take “CGGCAACCATGGACCGGTTTTCCCGGTAATCCGTATTTGAT (site CGGGAACCTAT)”: the “recombinant UMI read abundance (log10)” value was 0.

Regarding “CGGCAACCATGGACCGGTTTTCCCGGTAATCCGTATTTGAT (site CGGTAACCTAT)”, the “recombinant UMI read abundance (log10)” value is 0.

“CGGCACCCATGGACCGGTTTTCCCGGTAATCCGTATTTGTT (site CGGAATCCTAA)”: the “recombinant UMI read abundance (log10)” value was 0.00519.

For the sequence “CGGCACCCATGGACCGGTTTTCCCGGTAATCCGTATTTGTT (site CGGCACCCTAA)”, the “recombinant UMI read abundance (log10)” value was found to be 0.393.

For the sequence “CGGCATCCATGGACCGGTTTTCCCGGTAATCCGTATTTGTC (site CGGCATCCTGA)”, the “recombinant UMI read abundance (log10)” value is 0.

As for “CGGCATGCATGGACCGGTTTTCCCGGTAATCCGTATTTGTT (site CGGAATCCTAA)”, the “recombinant UMI read abundance (log10)” value was 0.00719.

For the sequence “CGGCATGCATGGACCGGTTTTCCCGGTAATCCGTATTTGTT (site CGGCATGCTAA)”, the “recombinant UMI read abundance (log10)” value was 2.31.

With “CGGCCGTCATGGACCGGTTTTCCCGGTAATCCGTATTTGAT (site CGGCCGTCTAT)”, the “recombinant UMI read abundance (log10)” value came to 0.968.

Regarding “CGGCGGCCATGGACCGGTTTTCCCGGTAATCCGTATTTGTC (site CGGCGGCCTGA)”, the “recombinant UMI read abundance (log10)” value was found to be 0.965.

Regarding “CGGCTGCCATGGACCGGTTTTCCCGGTAATCCGTATTTGCA (site CGGCTGCCTTG)”, the “recombinant UMI read abundance (log10)” value was 1.18.

With “CGGCTGGCATGGACCGGTTTTCCCGGTAATCCGTATTTGGT (site CGGCTGGCTAC)”, the “recombinant UMI read abundance (log10)” value was 1.17.

“CGGGAACCATGGACCGGTTTTCCCGGTAATCCGTATTTGAA (site CGGGAACCTAT)”: the “recombinant UMI read abundance (log10)” value turned out to be 0.

On to “CGGGAACCATGGACCGGTTTTCCCGGTAATCCGTATTTGAA (site CGGGAACCTCT)”, for which the “recombinant UMI read abundance (log10)” value was 0.00576.

Regarding “CGGGAACCATGGACCGGTTTTCCCGGTAATCCGTATTTGAA (site CGGGAACCTGT)”, the “recombinant UMI read abundance (log10)” value stood at 0.

Consider “CGGGAACCATGGACCGGTTTTCCCGGTAATCCGTATTTGAA (site CGGGAACCTTT)”, for which the “recombinant UMI read abundance (log10)” value is 0.

With “CGGGAGCCATGGACCGGTTTTCCCGGTAATCCGTATTTGCT (site CGGGAGCCTAG)”, the “recombinant UMI read abundance (log10)” value amounted to 0.17.

Consider “CGGGAGGCATGGACCGGTTTTCCCGGTAATCCGTATTTGCC (site CGGGAGACTGG)”, for which the “recombinant UMI read abundance (log10)” value is 0.

As for “CGGGAGGCATGGACCGGTTTTCCCGGTAATCCGTATTTGCC (site CGGGAGCCTGG)”, the “recombinant UMI read abundance (log10)” value is 0.

On to “CGGGAGGCATGGACCGGTTTTCCCGGTAATCCGTATTTGCC (site CGGGAGGCTGG)”, for which the “recombinant UMI read abundance (log10)” value was 0.183.

Take “CGGGAGGCATGGACCGGTTTTCCCGGTAATCCGTATTTGCC (site CGGGAGTCTGG)”: the “recombinant UMI read abundance (log10)” value came out at 0.

For the sequence “CGGGAGTCATGGACCGGTTTTCCCGGTAATCCGTATTTGAC (site CGGGAGTCTGA)”, the “recombinant UMI read abundance (log10)” value was 2.28.

In the case of “CGGGAGTCATGGACCGGTTTTCCCGGTAATCCGTATTTGAC (site CGGGAGTCTGC)”, the “recombinant UMI read abundance (log10)” value is 1.66.

As to “CGGGAGTCATGGACCGGTTTTCCCGGTAATCCGTATTTGAC (site CGGGAGTCTGG)”, the “recombinant UMI read abundance (log10)” value is 1.25.

With “CGGGAGTCATGGACCGGTTTTCCCGGTAATCCGTATTTGAC (site CGGGAGTCTGT)”, the “recombinant UMI read abundance (log10)” value amounted to 0.147.

As for “CGGGAGTCATGGACCGGTTTTCCCGGTAATCCGTATTTGGT (site CGGGAGTCTAC)”, the “recombinant UMI read abundance (log10)” value is 2.11.

For “CGGGATCCATGGACCGGTTTTCCCGGTAATCCGTATTTGTA (site CGGAATCCTAA)”, the “recombinant UMI read abundance (log10)” value stood at 0.

With “CGGGATCCATGGACCGGTTTTCCCGGTAATCCGTATTTGTA (site CGGGATCCTTA)”, the “recombinant UMI read abundance (log10)” value worked out at 1.69.

Turning to “CGGGATTCATGGACCGGTTTTCCCGGTAATCCGTATTTGCC (site CGGGAATCTGG)”, the “recombinant UMI read abundance (log10)” value is 0.816.

“CGGGATTCATGGACCGGTTTTCCCGGTAATCCGTATTTGCC (site CGGGACTCTGG)”: the “recombinant UMI read abundance (log10)” value is 2.97.

On to “CGGGATTCATGGACCGGTTTTCCCGGTAATCCGTATTTGCC (site CGGGAGTCTGG)”, for which the “recombinant UMI read abundance (log10)” value came out at 1.18.

Regarding “CGGGATTCATGGACCGGTTTTCCCGGTAATCCGTATTTGCC (site CGGGATTCTGG)”, the “recombinant UMI read abundance (log10)” value was found to be 2.58.

On to “CGGGATTCATGGACCGGTTTTCCCGGTAATCCGTATTTGTT (site CGGAATCCTAA)”, for which the “recombinant UMI read abundance (log10)” value stood at 0.

For the sequence “CGGGATTCATGGACCGGTTTTCCCGGTAATCCGTATTTGTT (site CGGGATTCTAA)”, the “recombinant UMI read abundance (log10)” value is 2.91.

On to “CGGGGTACATGGACCGGTTTTCCCGGTAATCCGTATTTGTA (site CGGGGTACTTA)”, for which the “recombinant UMI read abundance (log10)” value came to 2.49.

In the case of “CGGGGTGCATGGACCGGTTTTCCCGGTAATCCGTATTTGGT (site CGGGGTGCTAC)”, the “recombinant UMI read abundance (log10)” value worked out at 1.25.

For the sequence “CGGGTCACATGGACCGGTTTTCCCGGTAATCCGTATTTGTC (site CGGGTCACTGA)”, the “recombinant UMI read abundance (log10)” value amounted to 3.01.

Turning to “CGGGTTCCATGGACCGGTTTTCCCGGTAATCCGTATTTGAC (site CGGGTTCCTGT)”, the “recombinant UMI read abundance (log10)” value was 0.77.

In the case of “CGGTAGTCATGGACCGGTTTTCCCGGTAATCCGTATTTGCC (site CGGAAGTCTGG)”, the “recombinant UMI read abundance (log10)” value came out at 0.759.

On to “CGGTAGTCATGGACCGGTTTTCCCGGTAATCCGTATTTGCC (site CGGCAGTCTGG)”, for which the “recombinant UMI read abundance (log10)” value was found to be 1.47.

“CGGTAGTCATGGACCGGTTTTCCCGGTAATCCGTATTTGCC (site CGGGAGTCTGG)”: the “recombinant UMI read abundance (log10)” value came out at 0.

With “CGGTAGTCATGGACCGGTTTTCCCGGTAATCCGTATTTGCC (site CGGTAGTCTGG)”, the “recombinant UMI read abundance (log10)” value was found to be 2.78.

As for “CGGTATACATGGACCGGTTTTCCCGGTAATCCGTATTTGTT (site CGGAATCCTAA)”, the “recombinant UMI read abundance (log10)” value turned out to be 0.

With “CGGTATACATGGACCGGTTTTCCCGGTAATCCGTATTTGTT (site CGGTATACTAA)”, the “recombinant UMI read abundance (log10)” value was determined as 1.62.

“CGGTATCCATGGACCGGTTTTCCCGGTAATCCGTATTTGAT (site CGGAATCCTAA)”: the “recombinant UMI read abundance (log10)” value is 0.00344.

Turning to “CGGTATCCATGGACCGGTTTTCCCGGTAATCCGTATTTGAT (site CGGTATCCTAT)”, the “recombinant UMI read abundance (log10)” value amounted to 0.734.

For “CGGTATCCATGGACCGGTTTTCCCGGTAATCCGTATTTGCC (site CGGTATCCTGG)”, the “recombinant UMI read abundance (log10)” value was 0.

Regarding “CGGTCATCATGGACCGGTTTTCCCGGTAATCCGTATTTGTT (site CGATCATCTAG)”, the “recombinant UMI read abundance (log10)” value is 0.

With “CGGTCATCATGGACCGGTTTTCCCGGTAATCCGTATTTGTT (site CGGTCATCTAA)”, the “recombinant UMI read abundance (log10)” value amounted to 0.27.
